Tests used:
Enterococcus sp. = experiment: in vitro antibacterial evaluation, MIC by broth dilution; assay type: cell-based; details: broth dilution, 18 hours at 35° C.
How it was run: (§1)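 Broth dilution per NCCLS M7-A2 in Mueller-Hinton II medium, inoculum 5×10^5 CFU/mL, antibiotic range 64-0.06 μg/mL. MIC taken as lowest concentration inhibiting growth; Gram-positive panel includes recent clinical isolates resistant to methicillin, penicillin and/or vancomycin.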

Escherichia coli = experiment: as above; assay type: cell-based; details: 18 hours at 35° C.
How it was run: as §1

Staphylococcus sp. = experiment: as above; assay type: cell-based; details: broth dilution, 18 hours at 35° C.
How it was run: as §1

Streptococcus sp. = experiment: as above; assay type: cell-based; details: broth dilution, 18 hours at 35° C.
How it was run: as §1

[1] = clinical pathology (serum clinical chemistry) in mice; assay type: in vivo; details: CD-1 mice, 20 mg/kg intravenously daily for 9 days, sera day 10
Experimental: 20-day-old CD-1 mice were divided into a vehicle control group (5 mice) and a treatment group (5 mice). Samples of glycopeptide antibiotics were administered at 20 mg/kg intravenously daily for 9 days.

[2] = anatomic pathology (histopathology of heart and kidney) in mice; assay type: in vivo; details: CD-1 mice, 20 mg/kg intravenously daily for 9 days, necropsy day 10, microscopic histopathology
Experimental: Samples of tissues from necropsied mice were formalin-fixed, paraffin-embedded, sectioned, stained with hematoxylin and eosin, and examined microscopically. Histopathologic findings were recorded. These findings were subjectively graded on a scale corresponding to slight, mild, moderate, marked and severe as compared to untreated controls.

CC(c1ccccc1)C1NC(=O)CNC(=O)C(CO)NC(=O)C(C(O)C2CNC(=N)N2C2OC(CO)C(O)C(O)C2O)NC(=O)C(C(O)C2CNC(=N)N2)NC(=O)C(Cc2ccc(OC3OC(CO)C(OC4OC5COC(Cc6ccccc6)OC5C(O)C4O)C(O)C3O)cc2)NC1=O (stereo not drawn) [Example 102, Cyclo[glycyl-β-methylphenylalanyl-O-[4-O-(4,6-O-phenethylidenehexopyranosyl)-hexopyranosyl]tyrosyl-3-(2-iminoimidazolidin-4-yl)seryl-3-(3-hexopranosyl-2-iminoimidazolidin-4-yl)serylseryl]]
+340%: Clinical Chemistry (Day 10) % of Control, AST [1]
<0.06 µg/mL: MIC Streptococcus pneumoniae (ATCC 6301) (Streptococcus sp.; Streptococcus pneumoniae (ATCC 6301)) | MIC Streptococcus pneumoniae (GC 1894) (Streptococcus sp.; Streptococcus pneumoniae (GC 1894)) | MIC Streptococcus pneumoniae (ATCC 6301) (Streptococcus sp.; strain ATCC 6301) | MIC Streptococcus pneumoniae (GC 1894) (Streptococcus sp.; strain GC 1894)
2 µg/mL: MIC Staphylococcus aureus (GC 1131) (Staphylococcus sp.) | MIC Staphylococcus aureus (GC 1131) (Staphylococcus sp.; strain GC 1131)
0.5 to 1 µg/mL: MIC Escherichia coli (GC 4560) (Escherichia coli; strain GC 4560) | MIC Coagulase Negative Staphylococcus (GC 4548) (Staphylococcus sp.) | MIC Coagulase Negative Staphylococcus (GC 4549) (Staphylococcus sp.) | MIC Staphylococcus aureus (GC 4542) (Staphylococcus sp.) | MIC Staphylococcus aureus (GC 4545) (Staphylococcus sp.) | MIC Staphylococcus aureus-SMITH (GC 4543) (Staphylococcus sp.) | MIC Staphylococcus haemolyticus (GC 4546) (Staphylococcus sp.) | MIC Staphylococcus haemolyticus (GC 4546) (Staphylococcus sp.; strain GC 4546) | MIC Coagulase Negative Staphylococcus (GC 4548) (Staphylococcus sp.; strain GC 4548) | MIC Coagulase Negative Staphylococcus (GC 4549) (Staphylococcus sp.; strain GC 4549) | MIC Staphylococcus aureus-SMITH (GC 4543) (Staphylococcus sp.; strain SMITH GC 4543) | MIC Staphylococcus aureus (GC 4542) (Staphylococcus sp.; strain GC 4542) | MIC Staphylococcus aureus (GC 4545) (Staphylococcus sp.; strain GC 4545)
+672%: Clinical Chemistry (Day 10) % of Control, ALT [1]
2 to 4 µg/mL: MIC Enterococcus avium (GC 4558) (Enterococcus sp.; Enterococcus avium (GC 4558)) | MIC Enterococcus faecalis (ATCC 29212) (Enterococcus sp.; Enterococcus faecalis (ATCC 29212)) | MIC Enterococcus faecalis (GC 2242) (Enterococcus sp.; Enterococcus faecalis (GC 2242)) | MIC Enterococcus faecalis (GC 2691) (Enterococcus sp.; Enterococcus faecalis (GC 2691)) | MIC Enterococcus faecalis (GC 3059) (Enterococcus sp.; Enterococcus faecalis (GC 3059)) | MIC Enterococcus faecalis (GC 4552) (Enterococcus sp.; Enterococcus faecalis (GC 4552)) | MIC Enterococcus faecalis (GC 4553) (Enterococcus sp.; Enterococcus faecalis (GC 4553)) | MIC Enterococcus faecalis (GC 4554) (Enterococcus sp.; Enterococcus faecalis (GC 4554)) | MIC Enterococcus faecalis (GC 6189) (Enterococcus sp.; Enterococcus faecalis (GC 6189)) | MIC Enterococcus faecium (GC 2243) (Enterococcus sp.; Enterococcus faecium (GC 2243)) | MIC Enterococcus faecium (GC 4556) (Enterococcus sp.; Enterococcus faecium (GC 4556)) | MIC Enterococcus faecalis (ATCC 29212) (Enterococcus sp.; strain ATCC 29212) | MIC Enterococcus faecalis (GC 2242) (Enterococcus sp.; strain GC 2242) | MIC Enterococcus faecium (GC 2243) (Enterococcus sp.; strain GC 2243) | MIC Enterococcus faecalis (GC 2691) (Enterococcus sp.; strain GC 2691) | MIC Enterococcus faecalis (GC 3059) (Enterococcus sp.; strain GC 3059) | MIC Enterococcus faecalis (GC 4552) (Enterococcus sp.; strain GC 4552) | MIC Enterococcus faecalis (GC 4553) (Enterococcus sp.; strain GC 4553) | MIC Enterococcus faecalis (GC 4554) (Enterococcus sp.; strain GC 4554) | MIC Enterococcus faecium (GC 4556) (Enterococcus sp.; strain GC 4556) | MIC Enterococcus avium (GC 4558) (Enterococcus sp.; strain GC 4558) | MIC Enterococcus faecalis (GC 6189) (Enterococcus sp.; strain GC 6189)
16 to 32 µg/mL: MIC Escherichia coli (GC 4559) (Escherichia coli; strain GC 4559)
+100%: Clinical Chemistry (Day 10) % of Control, Creatinine [1]
16 to 64 µg/mL: MIC Escherichia coli (ATCC 25922) (Escherichia coli; strain ATCC 25922)
<0.12 to 0.25 µg/mL: MIC Streptococcus agalactiae (GC 4564) (Streptococcus sp.; Streptococcus agalactiae (GC 4564)) | MIC Streptococcus pyogenes (GC 4563) (Streptococcus sp.; Streptococcus pyogenes (GC 4563)) | MIC Streptococcus pyogenes (GC 4563) (Streptococcus sp.; strain GC 4563) | MIC Streptococcus agalactiae (GC 4564) (Streptococcus sp.; strain GC 4564)
1 µg/mL: MIC Coagulase Negative Staphylococcus (GC 4547) (Staphylococcus sp.) | MIC Staphylococcus aureus (GC 3051) (Staphylococcus sp.) | MIC Coagulase Negative Staphylococcus (GC 4547) (Staphylococcus sp.; strain GC 4547) | MIC Staphylococcus aureus (GC 3051) (Staphylococcus sp.; strain GC 3051)
+++: Anatomical Pathology (Day 10), Heart [2] | Anatomical Pathology (Day 10), Kidney [2]
0.5 µg/mL: MIC Coagulase Negative Staphylococcus (GC 6257) (Staphylococcus sp.) | MIC Coagulase Negative Staphylococcus (GC 6257) (Staphylococcus sp.; strain GC 6257)
1 to 2 µg/mL: MIC Enterococcus faecium (GC 4557) (Enterococcus sp.; Enterococcus faecium (GC 4557)) | MIC Enterococcus faecium (GC 4557) (Enterococcus sp.; strain GC 4557) | MIC Coagulase Negative Staphylococcus (GC 4551) (Staphylococcus sp.) | MIC Staphylococcus aureus (ATCC 29213) (Staphylococcus sp.) | MIC Staphylococcus aureus (GC 3053) (Staphylococcus sp.) | MIC Staphylococcus aureus (GC 4541) (Staphylococcus sp.) | MIC Staphylococcus aureus (GC 4544) (Staphylococcus sp.) | MIC Coagulase Negative Staphylococcus (GC 4551) (Staphylococcus sp.; strain GC 4551) | MIC Staphylococcus aureus (ATCC 29213) (Staphylococcus sp.; strain ATCC 29213) | MIC Staphylococcus aureus (GC 3053) (Staphylococcus sp.; strain GC 3053) | MIC Staphylococcus aureus (GC 4541) (Staphylococcus sp.; strain GC 4541) | MIC Staphylococcus aureus (GC 4544) (Staphylococcus sp.; strain GC 4544)
+249%: Clinical Chemistry (Day 10) % of Control, BUN [1]

— US6914045B2, “Glycopeptide antibiotics” (Wyeth Holdings Corporation, priority 2001, dated 2005)
